From publication PMC9940851, “Seleno Containing Compounds as Potent and Selective Antifungal Agents” (ACS Infectious Diseases, 2022)
≈ marks a conversion by molar mass, not a printed value.

Key:
MpaCA = target: T1, MpaCA (Malassezia pachydermatis, UniProt A0A0M8MPA4); test: stopped-flow CO2 hydrase assay; type: biochemical
T1 construct: gene Malapachy_3798
T1 sequence (A0A0M8MPA4 1-242): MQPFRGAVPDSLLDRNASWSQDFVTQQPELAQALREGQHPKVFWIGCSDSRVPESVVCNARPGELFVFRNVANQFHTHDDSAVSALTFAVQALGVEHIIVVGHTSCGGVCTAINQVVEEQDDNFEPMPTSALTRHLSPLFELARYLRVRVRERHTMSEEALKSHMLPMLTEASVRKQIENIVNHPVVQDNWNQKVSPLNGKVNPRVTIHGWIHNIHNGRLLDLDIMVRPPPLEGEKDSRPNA

MgCA = target: T2, MgCA (Malassezia globosa, UniProt A8Q1N3); test: stopped-flow CO2 hydrase assay; type: biochemical
T2 construct: gene MGL_1814
T2 sequence (A8Q1N3 1-241): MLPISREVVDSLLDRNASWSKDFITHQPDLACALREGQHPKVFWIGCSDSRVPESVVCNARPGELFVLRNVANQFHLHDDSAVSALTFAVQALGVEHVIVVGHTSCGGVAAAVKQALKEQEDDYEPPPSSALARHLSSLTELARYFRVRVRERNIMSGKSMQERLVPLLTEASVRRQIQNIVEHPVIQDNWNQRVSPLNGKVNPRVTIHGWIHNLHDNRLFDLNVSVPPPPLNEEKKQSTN
In short: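 Recombinant carbonic anhydrase (5–12 nM) was preincubated with inhibitor for 15 min at room temperature. CO2 hydration (1.7–17 mM CO2) was then followed by stopped-flow using 0.2 mM phenol red at 557 nm in 20 mM Hepes pH 7.4 with 20 mM Na2SO4, over 10–100 s. Initial rates came from at least six traces, minus uncatalysed rates, and at least three determinations were averaged. Ki was obtained by nonlinear least-squares fitting with the Cheng-Prusoff equation.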

M. globosa ATCC MYA 4612 = tested on: T3, M. globosa ATCC MYA 4612; test: microbe, parasite or virus in culture; settings: Malassezia globosa
T3 construct: ATCC MYA 4612
Experimental: (§1) Inoculum preparations for antifungal assays were performed following the CLSI guidelines for antifungal susceptibility testing of yeasts.[31] Antifungal activity was evaluated on unicellular yeasts Candida albicans ATCC 10231, Candida glabrata ATCC 90030 (DSMZ 11226), Malassezia pachydermatis CDC 16334 (DSMZ 6172), Malassezia globosa ATCC MYA 4612, and Malassezia furfur ATCC 14521. All the fungal strains were stored at −80 °C in cryovials. Then Candida spp. and Malassezia pachydermatis were reactivated in RPMI 1640 broth for 24–48 h at 35 °C. The so obtained fresh cultures were streaked onto Sabouraud dextrose agar and incubated for 24–48 h at 35 °C. Malassezia globosa and furfur were reactivated in modified RPMI 1640 broth[32] for 24–48 h at 35 °C (M. furfur) and 33 °C (M. globosa), and then the cultures were streaked onto Leeming and Notman agar (MLNA) and incubated for 48–72 h at 35 °C for M. furfur and at 33 °C for M. globosa. The fungal inoculum for the testing was prepared by suspending in phosphate buffer (PB) 10 mM pH 7 4–5 colonies of about 1 mm diameter. The fungal suspension was then adjusted to a final optical density of 0.5 McFarland standard (1–5 × 10^6 cells/mL). The compound solutions were tested in a range of concentrations from 0.01 μg/mL to 256 μg/mL, and 50 μL were then added in 96 wells microtiter plates with 50 μL of fungal inoculum and incubated for 24–48 h at 35 °C. Growth and sterility controls were performed. […] Compounds 3a, 3c, 5b, 7a–d, 9c, 11e, 11i, and 14a,b were selected as representatives of the chemical moieties synthesized prior to their screen on yeasts of biomedical relevance such as M. pachydermatis DSMZ 6172, C. albicans ATCC 10231, and C. glabrata ATCC 90030 (DSMZ 11226) strains. The clinical used drugs Ketoconazole, SeS2, and Amphotericin B were included as references (Table 1).

ATCC M. furfur 14521 = tested on: T4, ATCC M. furfur 14521; test: microbe, parasite or virus in culture; settings: Malassezia furfur
T4 construct: ATCC 14521
Experimental: as §1

[1] = tested on: T5, M. pachydermatis DSMZ 6172; test: microbe, parasite or virus in culture; set-up: broth microdilution MIC, M. pachydermatis and Candida, 35 °C; settings: Malassezia pachydermatis, DSMZ6172
T5 construct: DSMZ 6172 (CDC 16334)
Experimental: as §1

NS(=O)(=O)c1ccc(NC(=[Se])Nc2ccc(F)cc2)cc1 [3b]
Ki (MpaCA): 0.965 µM | Ki (MgCA): 648 nM

NS(=O)(=O)c1ccc(NC(=[Se])Nc2cccc(C(F)(F)F)c2)cc1 [3d]
MIC (M. globosa ATCC MYA 4612): > 256 µg/mL | MIC (ATCC M. furfur 14521): 213 ± 73.9 µg/mL (≈ 505 µM) | MIC [1]: 6 ± 3.46 µg/mL (≈ 14.2 µM) | Ki (MpaCA): 0.617 µM | Ki (MgCA): 803 nM

NS(=O)(=O)c1ccc(NC(=[Se])Nc2ccccc2Cl)cc1 [3e]
MIC (M. globosa ATCC MYA 4612): 256 µg/mL (≈ 659 µM) | MIC (ATCC M. furfur 14521): 5.3 ± 2.31 µg/mL (≈ 13.6 µM) | MIC [1]: 1 ± 0.87 µg/mL (≈ 2.57 µM) | Ki (MpaCA): 0.693 µM | Ki (MgCA): 655 nM

NS(=O)(=O)c1cccc(NC(=[Se])Nc2ccccc2)c1 [4a]
MIC (M. globosa ATCC MYA 4612): 256 µg/mL (≈ 723 µM) | MIC (ATCC M. furfur 14521): 107 ± 37 µg/mL (≈ 301 µM) | MIC [1]: 4 µg/mL (≈ 11.3 µM) | Ki (MpaCA): 0.283 µM | Ki (MgCA): 783 nM

NS(=O)(=O)c1cccc(NC(=[Se])Nc2ccc(F)cc2)c1 [4b]
Ki (MpaCA): 0.342 µM | Ki (MgCA): 700 nM

NS(=O)(=O)c1ccc(CCNC(=[Se])Nc2ccccc2)cc1 [5a]
Ki (MpaCA): 0.793 µM | Ki (MgCA): 655 nM

NS(=O)(=O)c1ccc(CCNC(=[Se])Nc2cccc(C(F)(F)F)c2)cc1 [5c]
Ki (MpaCA): 0.992 µM | Ki (MgCA): 701 nM

NS(=O)(=O)c1ccc(CCNC(=[Se])Nc2ccc(Br)cc2)cc1 [5d]
Ki (MpaCA): 0.369 µM | Ki (MgCA): 683 nM

NS(=O)(=O)c1ccc(CCNC(=[Se])Nc2ccccc2Cl)cc1 [5e]
MIC (M. globosa ATCC MYA 4612): 256 µg/mL (≈ 614 µM) | MIC (ATCC M. furfur 14521): 2.3 ± 1.53 µg/mL (≈ 5.52 µM) | MIC [1]: 0.5 µg/mL (≈ 1.2 µM) | Ki (MpaCA): 0.518 µM | Ki (MgCA): 812 nM

COc1ccccc1NC(=[Se])NCCc1ccc(S(N)(=O)=O)cc1 [5f]
MIC (M. globosa ATCC MYA 4612): 256 µg/mL (≈ 621 µM) | MIC (ATCC M. furfur 14521): 1.3 ± 0.58 µg/mL (≈ 3.15 µM) | MIC [1]: 0.5 µg/mL (≈ 1.21 µM) | Ki (MpaCA): 0.525 µM | Ki (MgCA): 411 nM

NS(=O)(=O)c1ccc(CCNC(=[Se])Nc2ccc(I)cc2)cc1 [5g]
MIC (M. globosa ATCC MYA 4612): 85.3 ± 37 µg/mL (≈ 168 µM) | MIC (ATCC M. furfur 14521): 1.7 ± 0.58 µg/mL (≈ 3.34 µM) | MIC [1]: 1 µg/mL (≈ 1.97 µM) | Ki (MpaCA): 0.531 µM | Ki (MgCA): 689 nM

NS(=O)(=O)c1ccc(CCNC(=[Se])Nc2ccc3ccccc3c2)cc1 [5h]
MIC (M. globosa ATCC MYA 4612): 64 µg/mL (≈ 148 µM) | MIC (ATCC M. furfur 14521): 1.7 ± 0.58 µg/mL (≈ 3.93 µM) | MIC [1]: 0.5 µg/mL (≈ 1.16 µM) | Ki (MpaCA): 0.26 µM | Ki (MgCA): 562 nM

CCCCCCCc1ccc(C(=O)NC(=[Se])Nc2ccc(S(N)(=O)=O)cc2)cc1 [7e]
MIC (M. globosa ATCC MYA 4612): > 256 µg/mL | MIC (ATCC M. furfur 14521): 10.7 ± 4.62 µg/mL (≈ 22.3 µM) | MIC [1]: 0.5 µg/mL (≈ 1.04 µM) | Ki (MpaCA): 78.2 µM | Ki (MgCA): 5880 nM

NS(=O)(=O)c1ccc(NC(=[Se])NC(=O)c2ccc([N+](=O)[O-])cc2)cc1 [7f, 4-Nitro-N-((4-sulfamoylphenyl)carbamoselenoyl)benzamide]
MIC (M. globosa ATCC MYA 4612): 64 µg/mL (≈ 150 µM) | MIC (ATCC M. furfur 14521): 42.7 ± 18.5 µg/mL (≈ 99.9 µM) | MIC [1]: 2.2 ± 1.75 µg/mL (≈ 5.15 µM) | Ki (MpaCA): 85.4 µM | Ki (MgCA): 9010 nM

NS(=O)(=O)c1ccc(NC(=[Se])NC(=O)c2ccc(I)cc2)cc1 [7g, 4-Iodo-N-((4-sulfamoylphenyl)carbamoselenoyl)benzamide]
MIC (M. globosa ATCC MYA 4612): 256 µg/mL (≈ 504 µM) | MIC (ATCC M. furfur 14521): 6 ± 3.46 µg/mL (≈ 11.8 µM) | MIC [1]: 0.5 µg/mL (≈ 0.984 µM) | Ki (MpaCA): 76.1 µM | Ki (MgCA): 3110 nM

NS(=O)(=O)c1ccc(NC(=[Se])NC(=O)c2ccc(Br)cc2F)cc1 [7h, 4-Bromo-2-fluoro-N-((4-sulfamoylphenyl)carbamoselenoyl)benzamide]
MIC (M. globosa ATCC MYA 4612): 64 µg/mL (≈ 134 µM) | MIC (ATCC M. furfur 14521): 3.3 ± 1.15 µg/mL (≈ 6.89 µM) | MIC [1]: 0.5 µg/mL (≈ 1.04 µM) | Ki (MpaCA): 68.5 µM | Ki (MgCA): 764 nM

NS(=O)(=O)c1ccc(NC(=[Se])NC(=O)c2ccc(CCl)cc2)cc1 [7i, 4-(Chloromethyl)-N-((4-sulfamoylphenyl)carbamoselenoyl)benzamide]
MIC (ATCC M. furfur 14521): 16 µg/mL (≈ 37.1 µM) | MIC [1]: 6.7 ± 2.31 µg/mL (≈ 15.6 µM) | Ki (MpaCA): 67.7 µM | Ki (MgCA): 877 nM

NS(=O)(=O)c1ccc(NC(=[Se])NC(=O)c2ccc(/N=N/c3ccccc3)cc2)cc1 [7j, (E)-4-(Phenyldiazenyl)-N-((4-sulfamoylphenyl)carbamoselenoyl)benzamide]
MIC (M. globosa ATCC MYA 4612): 24 ± 13.9 µg/mL (≈ 49.3 µM) | MIC (ATCC M. furfur 14521): 21.3 ± 9.24 µg/mL (≈ 43.8 µM) | MIC [1]: 2 µg/mL (≈ 4.11 µM) | Ki (MpaCA): 37 µM | Ki (MgCA): 2860 nM

NS(=O)(=O)c1ccc(NC(=[Se])NC(=O)c2ccc(F)cc2)cc1 [7k, 4-Fluoro-N-((4-sulfamoylphenyl)carbamoselenoyl)benzamide]
MIC (M. globosa ATCC MYA 4612): 256 µg/mL (≈ 640 µM) | MIC (ATCC M. furfur 14521): 5.3 ± 2.31 µg/mL (≈ 13.2 µM) | MIC [1]: 0.5 µg/mL (≈ 1.25 µM) | Ki (MpaCA): 80.8 µM | Ki (MgCA): 8290 nM

NS(=O)(=O)c1cccc(NC(=[Se])NC(=O)c2ccccc2)c1 [8a]
MIC (M. globosa ATCC MYA 4612): 128 µg/mL (≈ 335 µM) | MIC (ATCC M. furfur 14521): 21.3 ± 9.24 µg/mL (≈ 55.7 µM) | MIC [1]: 2 µg/mL (≈ 5.23 µM) | Ki (MpaCA): 33.7 µM | Ki (MgCA): 4140 nM

CCCCCCCc1ccc(C(=O)NC(=[Se])Nc2cccc(S(N)(=O)=O)c2)cc1 [8b, 4-Heptyl-N-((3-sulfamoylphenyl)carbamoselenoyl)benzamide]
MIC (M. globosa ATCC MYA 4612): 213 ± 73.9 µg/mL (≈ 444 µM) | MIC (ATCC M. furfur 14521): 6.7 ± 2.31 µg/mL (≈ 13.9 µM) | MIC [1]: 0.8 ± 0.29 µg/mL (≈ 1.66 µM) | Ki (MpaCA): 49.3 µM | Ki (MgCA): 2190 nM

NS(=O)(=O)c1cccc(NC(=[Se])NC(=O)c2cc(Br)cc(OC(F)(F)F)c2)c1 [8c, 3-Bromo-N-((3-sulfamoylphenyl)carbamoselenoyl)-5-(trifluoromethoxy)benzamide]
MIC (M. globosa ATCC MYA 4612): 256 µg/mL (≈ 470 µM) | MIC (ATCC M. furfur 14521): 9.3 ± 6.11 µg/mL (≈ 17.1 µM) | MIC [1]: 2 µg/mL (≈ 3.67 µM) | Ki (MpaCA): 86.1 µM | Ki (MgCA): 7650 nM

NS(=O)(=O)c1cccc(NC(=[Se])NC(=O)c2ccc(F)cc2)c1 [8d, 4-Fluoro-N-((3-sulfamoylphenyl)carbamoselenoyl)benzamide]
MIC (M. globosa ATCC MYA 4612): 256 µg/mL (≈ 640 µM) | MIC (ATCC M. furfur 14521): 256 µg/mL (≈ 640 µM) | MIC [1]: 2 µg/mL (≈ 5 µM) | Ki (MpaCA): 79.5 µM | Ki (MgCA): 7300 nM

NS(=O)(=O)c1cccc(NC(=[Se])NC(=O)c2ccc(I)cc2)c1 [8e, 4-Iodo-N-((3-sulfamoylphenyl)carbamoselenoyl)benzamide]
MIC (M. globosa ATCC MYA 4612): > 256 µg/mL | MIC (ATCC M. furfur 14521): 6.7 ± 2.31 µg/mL (≈ 13.2 µM) | MIC [1]: 8 µg/mL (≈ 15.7 µM) | Ki (MpaCA): 77.6 µM | Ki (MgCA): 8740 nM

NS(=O)(=O)c1cccc(NC(=[Se])NC(=O)c2ccc(Cl)cc2)c1 [8f, 4-Chloro-N-((3-sulfamoylphenyl)carbamoselenoyl)benzamide]
MIC (M. globosa ATCC MYA 4612): 128 µg/mL (≈ 307 µM) | MIC (ATCC M. furfur 14521): 64 µg/mL (≈ 154 µM) | MIC [1]: 16 µg/mL (≈ 38.4 µM) | Ki (MpaCA): 74.7 µM | Ki (MgCA): 2080 nM
